# Reference: patent US20160113932A1, “TREATMENT OF CANCERS USING PI3 KINASE ISOFORM MODULATORS” (INFINITY PHARMACEUTICALS, INC., priority 2013, published 2016)
# Biological target: PI3K δ (Homo sapiens, UniProt O00329)
# Test: PI3K lipid kinase inhibition assay (TLC or HTRF), PI3K δ
# Format: biochemical
# Design: purchased Upstate
# Conditions: In Vitro
# From the text: (§1) Other commercial kits or systems for assaying PI3K activities are available. […] An exemplary system is PI 3-Kinase (human) HTRF™ Assay from Upstate.
# PI3K δ, sequence (O00329 whole entry): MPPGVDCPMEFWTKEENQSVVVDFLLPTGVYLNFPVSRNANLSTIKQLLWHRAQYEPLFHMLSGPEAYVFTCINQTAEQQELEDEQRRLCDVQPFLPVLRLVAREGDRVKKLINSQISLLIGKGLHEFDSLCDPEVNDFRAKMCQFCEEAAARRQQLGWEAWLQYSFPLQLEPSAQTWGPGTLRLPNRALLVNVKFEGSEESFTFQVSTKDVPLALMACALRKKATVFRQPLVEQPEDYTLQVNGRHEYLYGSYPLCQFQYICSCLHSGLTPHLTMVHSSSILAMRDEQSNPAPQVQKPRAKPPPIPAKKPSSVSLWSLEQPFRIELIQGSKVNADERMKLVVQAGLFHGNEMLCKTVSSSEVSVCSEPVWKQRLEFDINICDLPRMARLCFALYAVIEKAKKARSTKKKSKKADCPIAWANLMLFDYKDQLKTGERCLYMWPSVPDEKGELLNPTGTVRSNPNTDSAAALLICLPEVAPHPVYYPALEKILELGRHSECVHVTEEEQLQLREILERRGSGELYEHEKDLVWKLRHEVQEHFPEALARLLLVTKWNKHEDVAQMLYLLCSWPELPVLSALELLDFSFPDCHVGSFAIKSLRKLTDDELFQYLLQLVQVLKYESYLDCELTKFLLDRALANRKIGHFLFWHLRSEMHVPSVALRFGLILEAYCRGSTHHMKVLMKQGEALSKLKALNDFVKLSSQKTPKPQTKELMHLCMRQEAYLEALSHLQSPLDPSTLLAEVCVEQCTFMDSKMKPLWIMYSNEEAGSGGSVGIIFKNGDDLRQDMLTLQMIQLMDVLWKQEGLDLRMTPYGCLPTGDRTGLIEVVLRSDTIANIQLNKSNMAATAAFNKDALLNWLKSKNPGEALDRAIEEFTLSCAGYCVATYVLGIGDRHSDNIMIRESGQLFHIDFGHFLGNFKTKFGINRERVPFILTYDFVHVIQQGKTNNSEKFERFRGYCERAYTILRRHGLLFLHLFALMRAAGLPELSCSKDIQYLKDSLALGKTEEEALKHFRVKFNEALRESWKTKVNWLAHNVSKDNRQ
# PI3K δ, sequence (P27986 whole entry partner): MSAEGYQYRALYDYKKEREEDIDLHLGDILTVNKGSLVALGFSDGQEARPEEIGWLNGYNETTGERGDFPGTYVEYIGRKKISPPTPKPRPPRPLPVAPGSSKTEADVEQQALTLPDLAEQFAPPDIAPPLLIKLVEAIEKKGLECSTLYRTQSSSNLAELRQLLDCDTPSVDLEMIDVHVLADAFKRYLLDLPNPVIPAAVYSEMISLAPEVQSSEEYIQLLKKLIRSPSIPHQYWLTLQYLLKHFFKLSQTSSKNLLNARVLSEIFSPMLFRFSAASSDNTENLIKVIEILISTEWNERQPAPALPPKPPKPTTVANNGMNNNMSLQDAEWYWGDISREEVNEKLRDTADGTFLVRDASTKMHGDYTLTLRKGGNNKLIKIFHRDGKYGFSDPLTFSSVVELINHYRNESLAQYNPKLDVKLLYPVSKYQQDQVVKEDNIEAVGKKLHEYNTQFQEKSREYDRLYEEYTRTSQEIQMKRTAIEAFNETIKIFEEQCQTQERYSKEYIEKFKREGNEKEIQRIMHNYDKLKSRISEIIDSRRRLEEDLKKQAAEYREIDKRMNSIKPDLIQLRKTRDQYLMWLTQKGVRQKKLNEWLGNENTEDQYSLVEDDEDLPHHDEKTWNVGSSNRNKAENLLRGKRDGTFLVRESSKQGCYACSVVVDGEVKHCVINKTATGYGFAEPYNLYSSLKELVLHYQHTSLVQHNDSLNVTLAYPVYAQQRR
row,Structure (SMILES),IC50 [nM]
1,Cc1cccc2cc(Cn3nc(-c4ccc(Cl)c(O)c4)c4c(N)ncnc43)n(C(C)C)c(=O)c12 [Compound 123],< 100
2,Cc1ccccc1-n1c(Cn2nc(-c3cccc(O)c3)c3c(N)nccc32)cc2cccc(C)c2c1=O [Compound 119],< 100
3,Cc1cccnc1-n1c(Cn2nc(-c3cccc(O)c3)c3c(N)ncnc32)cc2ccccc2c1=O [Compound 94],< 1000
4,Cc1cccc2cc(Cn3nc(I)c4c(N)ncnc43)n(C(C)C)c(=O)c12 [Compound 129],< 10000
5,Cc1ccccc1-n1c(Cn2cnc3c(N)ncnc32)cc2cccc(C)c2c1=O [Compound 5],< 10000

# Biological target: T1, PI3K γ (Homo sapiens, UniProt P48736)
# T1 construct: purchased Sigma
# Test: PI3K lipid kinase inhibition assay (TLC or HTRF), PI3K γ
# Format: biochemical
# Conditions: In Vitro
# From the text: as §1
# T1 sequence (P48736 whole entry): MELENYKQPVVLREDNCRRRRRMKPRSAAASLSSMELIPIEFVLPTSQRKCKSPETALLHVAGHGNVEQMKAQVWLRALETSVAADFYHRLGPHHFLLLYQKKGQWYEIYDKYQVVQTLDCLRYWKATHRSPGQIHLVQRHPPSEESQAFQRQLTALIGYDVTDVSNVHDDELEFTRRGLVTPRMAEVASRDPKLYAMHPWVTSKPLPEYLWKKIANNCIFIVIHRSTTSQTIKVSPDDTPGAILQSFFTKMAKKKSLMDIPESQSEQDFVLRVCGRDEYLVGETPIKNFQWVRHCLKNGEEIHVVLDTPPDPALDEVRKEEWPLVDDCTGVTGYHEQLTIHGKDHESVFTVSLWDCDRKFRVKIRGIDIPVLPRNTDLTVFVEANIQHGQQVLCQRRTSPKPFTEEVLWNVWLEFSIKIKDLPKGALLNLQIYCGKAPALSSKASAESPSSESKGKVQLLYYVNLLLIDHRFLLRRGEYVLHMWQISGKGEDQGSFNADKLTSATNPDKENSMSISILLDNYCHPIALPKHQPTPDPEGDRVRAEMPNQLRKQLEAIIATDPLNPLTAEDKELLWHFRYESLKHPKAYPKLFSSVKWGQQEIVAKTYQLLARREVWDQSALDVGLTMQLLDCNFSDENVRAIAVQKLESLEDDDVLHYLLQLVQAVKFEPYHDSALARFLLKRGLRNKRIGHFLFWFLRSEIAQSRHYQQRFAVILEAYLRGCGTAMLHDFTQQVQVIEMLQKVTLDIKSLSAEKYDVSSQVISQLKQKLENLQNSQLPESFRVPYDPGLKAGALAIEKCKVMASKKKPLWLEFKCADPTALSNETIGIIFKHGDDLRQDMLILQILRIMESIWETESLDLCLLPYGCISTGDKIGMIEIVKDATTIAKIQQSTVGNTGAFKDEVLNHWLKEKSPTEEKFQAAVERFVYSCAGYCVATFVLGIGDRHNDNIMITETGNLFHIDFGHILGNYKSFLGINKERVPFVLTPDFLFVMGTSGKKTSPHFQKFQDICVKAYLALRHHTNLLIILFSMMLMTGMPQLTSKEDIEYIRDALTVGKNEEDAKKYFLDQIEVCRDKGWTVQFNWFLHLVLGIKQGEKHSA
row,Structure (SMILES),IC50 [nM]
1,Cc1ccccc1-n1c(Cn2nc(I)c3c(N)ncnc32)cc2cccc(C)c2c1=O [Compound 104],< 1000
2,Cc1cccnc1-n1c(Cn2nc(-c3cccc(O)c3)c3c(N)ncnc32)cc2ccccc2c1=O [Compound 94],< 10000
3,Cc1ccccc1-n1c(Cn2cnc3c(N)ncnc32)cc2cccc(C)c2c1=O [Compound 5],> 10000

# Biological target: T2, PI3K β (Homo sapiens, UniProt P42338)
# T2 construct: purchased Upstate
# Test: PI3K lipid kinase inhibition assay (TLC or HTRF), PI3K β
# Format: biochemical
# Conditions: In Vitro
# From the text: as §1
# T2 sequence (P42338 whole entry): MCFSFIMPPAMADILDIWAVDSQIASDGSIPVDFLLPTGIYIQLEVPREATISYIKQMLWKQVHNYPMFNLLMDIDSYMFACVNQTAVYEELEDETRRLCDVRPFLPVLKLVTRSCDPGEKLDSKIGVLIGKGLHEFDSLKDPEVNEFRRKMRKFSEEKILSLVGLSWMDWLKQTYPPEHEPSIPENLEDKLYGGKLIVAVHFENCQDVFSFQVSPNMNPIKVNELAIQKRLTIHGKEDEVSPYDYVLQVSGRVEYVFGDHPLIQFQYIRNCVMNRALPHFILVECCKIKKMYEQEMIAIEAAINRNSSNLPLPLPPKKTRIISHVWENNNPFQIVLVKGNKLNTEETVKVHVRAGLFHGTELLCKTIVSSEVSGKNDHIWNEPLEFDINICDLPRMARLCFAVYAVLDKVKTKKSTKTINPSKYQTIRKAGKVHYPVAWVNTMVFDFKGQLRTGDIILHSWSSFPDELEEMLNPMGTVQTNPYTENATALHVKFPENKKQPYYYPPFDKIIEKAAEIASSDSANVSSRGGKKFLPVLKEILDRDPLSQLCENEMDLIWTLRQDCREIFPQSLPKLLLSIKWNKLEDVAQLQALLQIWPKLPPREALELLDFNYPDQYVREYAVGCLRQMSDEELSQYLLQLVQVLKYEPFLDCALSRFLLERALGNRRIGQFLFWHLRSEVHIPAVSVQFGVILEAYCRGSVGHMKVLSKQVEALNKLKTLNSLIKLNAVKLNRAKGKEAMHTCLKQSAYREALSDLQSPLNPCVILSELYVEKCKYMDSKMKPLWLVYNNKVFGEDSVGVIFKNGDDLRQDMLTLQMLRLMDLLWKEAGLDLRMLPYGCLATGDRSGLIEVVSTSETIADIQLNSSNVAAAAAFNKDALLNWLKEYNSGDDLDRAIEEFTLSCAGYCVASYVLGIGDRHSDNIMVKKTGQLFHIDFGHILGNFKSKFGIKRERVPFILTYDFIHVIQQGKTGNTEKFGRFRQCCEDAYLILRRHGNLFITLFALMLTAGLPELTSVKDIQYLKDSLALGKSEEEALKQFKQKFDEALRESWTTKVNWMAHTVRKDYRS
# T2 sequence (P27986 whole entry partner): as the sequence (P27986 whole entry partner) above
row,Structure (SMILES),IC50 [nM]
1,Cc1ccccc1-n1c(Cn2nc(I)c3c(N)ncnc32)cc2cccc(C)c2c1=O [Compound 104],> 10000
2,Cc1ccccc1-n1c(Cn2nc(-c3cc(O)cc(F)c3)c3c(N)ncnc32)cc2cccc(C)c2c1=O [Compound 113],< 10000
